Each structure is given as a SMILES string.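 Five concentrations, 48 hours, 96-well plates. GI50 is the concentration that inhibits growth by half.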 Active and inactive are the calls of the source. Cut-off read from the data, not from the text of the source: active = GI50 up to about 1.1 µM and inactive = higher.

Experiment in all cases: NCI anticancer screen, dose series, 48 h
Test [1] concerns CAKI-1.
Test [2] concerns NCI-H522.
Test [3] concerns SR.
Test [4] concerns TK-10.
Test [5] relates to SF-539.
In test [6] the test system is MDA-MB-435.
Test [7] concerns HOP-62.
Test [8] concerns UACC-62.
Test [9] relates to HCT-15.
Test [10] relates to K562.
Test [11] concerns COLO 205.
Test [12] has as its system UO-31.
Test [13] has as its system NCI-H460.
Test [14] relates to HL-60.
Test [15] has as its system SF-295.
The subject of test [16] is BT-549.
In test [17] the test system is KM12.
The test system of test [18] is SK-MEL-2.
Test [19] relates to OVCAR-4.

For the molecule `CC1Oc2c(c(=O)oc3ccccc23)[C@@]1(C)CC1C[C@H](C)C(=O)O1` (some centres not stated), the GI50 in [1] was 19.1 µM (inactive); in [2], 19.5 µM (inactive); in [3], > 10 µM (inactive); in test [4], > 100 µM (inactive); in test [5], 25.2 µM (inactive); in [6], 21.9 µM (inactive). Also, the GI50 was 47.6 µM (inactive) in [7]; 19.1 µM (inactive) in [8]; 18.3 µM in test [9]; 16.8 µM (inactive) in test [10]; 32.1 µM (inactive) in [11]; 27.6 µM (inactive) in test [12]. In addition, the GI50 in [13] was > 10 µM (inactive); in test [14], 27.5 µM (inactive); in test [15] it was 63 µM (inactive); in test [16] it was 30.8 µM (inactive); in test [17], 44.6 µM (inactive); in test [18], 25.9 µM (inactive).
Turning to `O=C(C[N+]1(c2ccccc2)CCOCC1)c1ccccc1`, the GI50 in [1] is > 100 µM (inactive); in [2] it was 45.7 µM (inactive); in [3], 34.8 µM (inactive); in test [4], > 100 µM (inactive); in test [19], > 100 µM (inactive); in test [6], > 100 µM (inactive). Moreover, the GI50 in test [7] is > 100 µM (inactive); in test [8] it was > 100 µM (inactive); in test [9], greater than 100 µM; in test [10], 40.9 µM (inactive); in test [12], > 100 µM (inactive); in test [13] it was > 100 µM (inactive). Also, the GI50 in [15], in [16], in test [17] and in test [18] was > 100 µM (inactive) each time.
Take `CC(C)(C)OC(=O)NCCC1CN(C(=O)c2ccccc2)c2ccccc21` (configuration not stated): the GI50 is 36 µM (inactive) in test [1]; 22.6 µM (inactive) in [2]; 7.82 µM (inactive) in [3]; 56.2 µM (inactive) in test [4]; 36.9 µM (inactive) in [19]; 27.6 µM (inactive) in test [6]. Moreover, the GI50 in test [7] is 25.8 µM (inactive); in test [8], 19 µM (inactive); in test [9], 29.9 µM; in test [10] it was 27 µM (inactive); in test [11] it was 19.7 µM (inactive); in test [12] it was 23.7 µM (inactive). For the same molecule, the GI50 was 22.9 µM (inactive) in test [13]; 29.4 µM (inactive) in test [15]; 25.1 µM (inactive) in test [16]; 31.5 µM (inactive) in test [17]; 27.7 µM (inactive) in [18].
With `CC12CCC(C(Br)(Br)C1=O)C2(C)C` (configuration not stated), the GI50 in test [1] is 1.8 µM (inactive); in test [2], 0.0208 µM (active); in [3], < 0.01 µM (active); in test [4], 2.09 µM (inactive); in [5], 2.94 µM (inactive); in test [19], 0.333 µM (active). Besides, the GI50 was 0.0942 µM (active) in [6]; 6 µM (inactive) in [7]; 0.682 µM (active) in [8]; 0.164 µM in test [9]; < 0.0202 µM (active) in [10]; 3.01 µM (inactive) in test [11]. Also, the GI50 was 0.48 µM (active) in test [12]; 4.05 µM (inactive) in test [13]; < 0.0148 µM (active) in test [14]; 3.49 µM (inactive) in [15]; 0.173 µM (active) in [16]; 2.77 µM (inactive) in test [17].
With `Brc1ccc(-c2[nH]c3ccccc3c2/C=N\Nc2ccc(-c3nc4ccccc4[nH]3)cc2)cc1`, the GI50 in [1], in [2], in test [3], in test [5], in test [6] and in test [7] was < 0.01 µM (active) throughout. Besides, the GI50 in test [8] was < 0.01 µM (active); in test [9], less than 0.01 µM; in test [10] it was < 0.01 µM (active); in [11], < 0.01 µM (active); in test [12], < 0.01 µM (active); in [13] it was < 0.01 µM (active). Also, the GI50 is < 0.01 µM (active) in [14]; < 0.01 µM (active) in test [15]; 2.08 µM (inactive) in test [16]; < 0.01 µM (active) in test [17]; < 0.0139 µM (active) in test [18].
For the molecule `O=C(NC(=O)c1cc(-c2ccccc2)n[nH]1)c1ccccc1`, the GI50 in test [1] is > 100 µM (inactive); in test [2], 70.8 µM (inactive); in test [3], 24 µM (inactive); in [4], > 100 µM (inactive); in test [5], > 100 µM (inactive); in test [19], > 100 µM (inactive). Also, the GI50 in test [6] was > 100 µM (inactive); in test [7], 64.9 µM (inactive); in test [8], > 100 µM (inactive); in test [9], greater than 100 µM; in [10], 77.8 µM (inactive); in test [11], > 100 µM (inactive). Further, the GI50 in test [12], in test [13], in test [15], in test [16], in [17] and in [18] was > 100 µM (inactive) throughout.
As to `CCOc1cc(CC[N+](C)(C)C)c2c(ccc3ccc(OC)c(OC)c32)c1OC`, the GI50 in test [1] was > 100 µM (inactive); in test [2], > 100 µM (inactive); in test [3], > 100 µM (inactive); in test [19], > 10 µM (inactive); in test [6], > 100 µM (inactive); in test [8], > 100 µM (inactive). For the same molecule, the GI50 in [11] is > 100 µM (inactive); in test [12], > 100 µM (inactive); in [15], > 100 µM (inactive); in [16], 19.4 µM (inactive).
Consider `[O-][N+](CCO)(CCO)c1ncnc2[nH]cnc12`, for which the GI50 in test [1], in [2], in test [3], in test [4], in [19] and in [6] was > 100 µM (inactive) each time. Besides, the GI50 in test [7] is > 100 µM (inactive); in [8] it was > 100 µM (inactive); in test [9], greater than 100 µM; in test [10], > 100 µM (inactive); in test [11] it was > 100 µM (inactive); in test [12] it was > 100 µM (inactive). Also, the GI50 in test [15], in test [16], in [17] and in test [18] was > 100 µM (inactive) in each case.
In the case of `Cc1nc(Cl)nc(Cl)c1C`, the GI50 in test [2], in test [3], in test [4], in [5], in test [19] and in test [6] was > 100 µM (inactive) each time. For the same molecule, the GI50 in test [7] is > 100 µM (inactive); in test [9], greater than 100 µM; in [10] it was > 100 µM (inactive); in test [12], > 100 µM (inactive); in test [13] it was > 100 µM (inactive); in [14], > 100 µM (inactive). For the same molecule, the GI50 was > 100 µM (inactive) in [15], 75.7 µM (inactive) in test [16], > 100 µM (inactive) in [17] and > 100 µM (inactive) in test [18].
Take `COC(=O)CCNC(=O)OCc1ccccc1`: the GI50 in test [1], in [2], in test [3], in test [4], in [5] and in test [6] was > 100 µM (inactive) throughout. Besides, the GI50 is > 100 µM (inactive) in [7]; > 100 µM (inactive) in [8]; greater than 100 µM in test [9]; > 100 µM (inactive) in test [10]; > 100 µM (inactive) in test [11]; > 100 µM (inactive) in test [12]. For the same molecule, the GI50 in [13], in test [14], in test [15], in test [16], in [17] and in [18] was > 100 µM (inactive) throughout.
For `CO[C@@H]1C[C@H]2[C@@H]3CC[C@H]([C@@H](C)COC(C)=O)[C@@]3(C)CC[C@@H]2[C@@]2(C)CC[C@H]3C[C@]312`, the GI50 in test [1] was 9.12 µM (inactive); in [2], 16.2 µM (inactive); in test [3] it was 10 µM (inactive); in [4] it was > 10 µM (inactive); in [5], 17.5 µM (inactive); in test [19] it was 22 µM (inactive). Further, the GI50 in test [6] was 15.1 µM (inactive); in [7], 17.7 µM (inactive); in [9] it was 13.3 µM; in test [10], 10.2 µM (inactive); in test [11], 0.879 µM (active); in [12], 18.5 µM (inactive). Further, the GI50 in [13] is 10.1 µM (inactive); in test [14] it was 3.89 µM (inactive); in [15], 15.1 µM (inactive); in test [16], 14.2 µM (inactive); in test [17] it was 11.1 µM (inactive).
For the molecule `C=CCN1C(=O)C=C(c2ccccc2)n2ncc3cccc1c32`, the GI50 in test [1] was > 100 µM (inactive); in test [2], > 100 µM (inactive); in test [3], > 100 µM (inactive); in test [4] it was > 100 µM (inactive); in test [5], > 100 µM (inactive); in test [6] it was 1.46 µM (inactive). In addition, the GI50 in test [7] is 80.4 µM (inactive); in test [8], > 100 µM (inactive); in test [9], greater than 100 µM; in [11], > 100 µM (inactive); in test [12], > 100 µM (inactive); in [14], > 100 µM (inactive). The GI50 in [15] is > 100 µM (inactive); in [16], > 100 µM (inactive); in test [17] it was 47.8 µM (inactive); in test [18], > 100 µM (inactive).

For the origin of these results see ChEMBL document CHEMBL1201862, “PubChem BioAssay data set” (2004).
